Assay results taken from patent publication US4576947A, “Pharmaceutical compositions” (Hoechst Aktiengesellschaft, priority 1972, dated 1986).

Assays:
[1] = system: cerebral blood flow of cats; assay: Investigation of cerebral blood flow of cats (heat-conducting thermoprobe according to Hensel); format: in vivo; settings: for Change of blood perfusion half-value time: action time; for Change of blood perfusion Δ λ: heat transfer factor λ
Method: The test animals are cats under chloralose urethane narcosis (70+200 mg/kg i.p.). The top of the skull is opened in the area of the frontal gyrus marginalis or suprasylvicus. […] The action time is given as the half value time and the intensity of action is determined according to Golenhofen et al. as a heat transfer factor λ. The recording was performed with thermoprobes using a two-channel Pluvograph of Hartmann & Braun, Frankfurt am Main, Germany. Other circulation parameters recorded at the same time were fed to a Hellige multi-channel recorder.

[2] = Toxicity in mg/kg (mouse); settings: in vivo
[3] = background statement, in words; cited from earlier work
[4] = system: rate of blood circulation; settings: background statement, in words; cited from earlier work
cerebral blood flow = assay: Cerebral blood flow, statements in the description; format: in vivo; settings: in words

| Structure (SMILES) | Change of blood perfusion half-value time ([1]; 5 mg/kg i.v.) | Change of blood perfusion Δ λ ([1]; 5 mg/kg i.v.) | LD50 ([2]; ip) | Change of blood perfusion half-value time ([1]; 10 mg/kg i.v.) | Change of blood perfusion Δ λ ([1]; 10 mg/kg i.v.) | Change of blood perfusion half-value time ([1]; 50 mg/kg i.v.) | Change of blood perfusion Δ λ ([1]; 50 mg/kg i.v.) | Change of blood perfusion half-value time ([1]; 100 mg/kg i.v.) | Change of blood perfusion Δ λ ([1]; 100 mg/kg i.v.) | water solubility and/or toxicity versus theobromine, theophylline and trialkylxanthines [3] | pharmacological activity [4] | further results |
| --- | --- | --- | --- | --- | --- | --- | --- | --- | --- | --- | --- | --- |
| CC(O)CCCCn1cnc2c1c(=O)n(C)c(=O)n2C (stereo not shown) [1,3-dimethyl-7-(5-hydroxyhexyl)-xanthine] | 1.8 min | +0.18 | 250 to 500 mg/kg | – | – | – | – | – | – | – | – | – |
| CC(O)CCCCCn1cnc2c1c(=O)n(C)c(=O)n2C (stereo not shown) [1,3-dimethyl-7-(6-hydroxyheptyl)-xanthine] | 1.8 min | +1.17 | 250 to 500 mg/kg | – | – | – | – | – | – | – | – | Change of blood perfusion half-value time ([1]; 1 mg/kg i.v.): 0.6 min; Change of blood perfusion Δ λ ([1]; 1 mg/kg i.v.): +0.70; Change of blood perfusion half-value time ([1]; 2 mg/kg i.v.): 1.2 min; Change of blood perfusion Δ λ ([1]; 2 mg/kg i.v.): +0.42 |
| CC(O)Cn1c(=O)c2c(ncn2C)n(C)c1=O (stereo not shown) [1-(2-hydroxypropyl)-3,7-dimethylxanthine] | 0.50 min | -0.25 | – | 1.50 min | -0.50 | 17.5 min | -5.25 | 6.5 min | -10.00 | greater degree of water solubility and/or lower toxicity than theobromine,theophylline and trialkylxanthines | reduced pharmacological activity | – |
| CC(O)CCCCn1c(=O)c2c(ncn2C)n(C)c1=O (stereo not shown) [1-(5-hydroxyhexyl)-3,7-dimethylxanthine] | 5.0 min | +1.55 | – | 3.5 min | +2.65 | – | – | – | – | – | – | Change of blood perfusion half-value time ([1]; 3 mg/kg i.v.): 4.3 min; Change of blood perfusion Δ λ ([1]; 3 mg/kg i.v.): +1.80; LD50 ([2]; iv): 195 mg/kg |
| Cn1c(=O)c2c(ncn2CC(O)CO)n(C)c1=O (stereo not shown) [7-(2,3-dihydroxypropyl)-1,3-dimethylxanthine] | – | – | – | 1.7 min | – | 3.0 min | +0.20 | 3.0 min | -0.05 | greater degree of water solubility and/or lower toxicity than theobromine,theophylline and trialkylxanthines | reduced pharmacological activity | Change of blood perfusion half-value time ([1]; 25 mg/kg i.v.): 6.0 min; Change of blood perfusion Δ λ ([1]; 25 mg/kg i.v.): -0.23 |
| CC(O)Cn1cnc2c1c(=O)n(C)c(=O)n2C (stereo not shown) [7-(2-Hydroxypropyl)-1,3-dimethyl-xanthine] | – | – | – | – | – | – | – | – | – | greater degree of water solubility and/or lower toxicity than theobromine,theophylline and trialkylxanthines | reduced pharmacological activity | – |
| Cn1c(=O)c2c(ncn2CCO)n(C)c1=O [7-(2-hydroxyethyl)-1,3-dimethylxanthine] | 0.23 min | -0.50 | – | 0.50 min | -1.33 | 7.17 min | -5.33 | 8.00 min | -6.00 | – | – | Change of blood perfusion half-value time ([1]; 25 mg/kg i.v.): 6.73 min; Change of blood perfusion Δ λ ([1]; 25 mg/kg i.v.): -2.17 |
| Cn1c(=O)c2[nH]cnc2n(C)c1=O.NCCN [theophylline-ethylenediamine, 1,3-dimethylxanthine-ethylene-diamine] | 3.3 min | +0.18 | 217 mg/kg | 1.7 min | +0.53 | – | – | – | – | – | – | Change of blood perfusion half-value time ([1]; 1 mg/kg i.v.): 1.8 min; Change of blood perfusion Δ λ ([1]; 1 mg/kg i.v.): +0.19; Change of blood perfusion half-value time ([1]; 2 mg/kg i.v.): 1.8 min; Change of blood perfusion Δ λ ([1]; 2 mg/kg i.v.): +0.15; action on cerebral blood flow (cerebral blood flow): increases the cerebral blood flow, but only to a limited extent and only for a short time |
